The numbers were not newly measured in patent US7459460B2, “Trisubstituted heteroaromatic compounds as calcium sensing receptor modulators” (Bristol-Myers Squibb Company, priority 2003, dated 2008), which cites them from elsewhere.

For data set [1] the following is noted: postmenopausal women, placebo-controlled trial.
The conditions of data set [2]: intravenous bolus injection.
The conditions of data set [3]: OVX rats, oral administration, in the presence of an anti-resorptive agent.

“PTH peptide fragment (1-34): the PTH peptide fragment (1-34) of parathyroid hormone (SVSEIQLMHNLGKHLNSMERVEWLRKKLQDVHNF; Parathyroid hormone; UniProt P01270 32-65, looked up, fragment)”: in data set [1], the “reduce the risk of non-traumatic, non-spine fractures” value is recorded as 54% and the “reduce the risk of spine fractures” value was 65%.
Turning to `CC(C)(Cc1ccc2ccccc2c1)NC[C@@H](O)COc1cccc(Cl)c1C#N` [NPS-2143], the “serum PTH” value in data set [2] is listed as “transient increase in serum PTH”. The bone mass result in data set [3] is reported as “increase in bone mass”.
